What was measured:
Human recombinant MMP-13 = molecular target: T1, Human recombinant MMP-13 (Homo sapiens, UniProt P45452); assay: In vitro MMP inhibition, Ki determination (fluorogenic substrate II); format: biochemical; settings: value in parentheses
T1 construct: made in house; host or cells: baculovirus / insect cells
Procedure, shortened: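 Baculovirus-expressed proenzyme, APMA-activated; 4 μM fluorogenic MCA/Dpa peptide substrate (II), at or below Km, in Tris buffer pH 7.5 with CaCl2, 1 hr at room temperature. Fluorescence at 330/420 nm; Ki from non-linear regression with Morrison's equation, not corrected for substrate.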

Human recombinant MMP-14 = molecular target: T2, Human recombinant MMP-14 (Homo sapiens, UniProt P50281); assay: as above; format: biochemical; settings: value in parentheses
T2 construct: The catalytic domain enzyme was expressed in E. coli inclusion bodies, solubilized in urea; made in house
Procedure, shortened: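 Refolded E. coli-expressed MMP-14 catalytic domain, APMA- or trypsin-activated, incubated 1 h at room temperature with 4 μM fluorogenic substrate II in pH 7.5 Tris/NaCl/CaCl2 buffer; fluorescence read at 330/420 nm. Ki from Morrison-equation non-linear regression, substrate at or below Km, uncorrected for substrate.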

Row | Structure (SMILES) | Ki (Human recombinant MMP-13) [nM] | Ki (Human recombinant MMP-14) [µM]
1 | O=C(NO)C1(S(=O)(=O)c2ccc(OCCCc3cccc(-c4cccc(O)c4)c3)cc2)CCOCC1 [Example 530] | 7.33 | > 10
2 | O=C(NO)C1(S(=O)(=O)c2ccc(OCCc3ccc(-c4ccc(O)cc4)cc3)cc2)CCOCC1 [Example 531] | 2.72 | > 10
3 | O=C(NO)C1(S(=O)(=O)c2ccc(OCCc3ccc(-c4cccc(O)c4)cc3)cc2)CCOCC1 [Example 532] | 1.02 | > 10
4 | CCCCc1ccc(CCCOc2ccc(S(=O)(=O)C3(C(=O)NO)CCOCC3)cc2)cn1 [Example 533] | 0.226 | 6.68
5 | CCCc1ccc(CCCOc2ccc(S(=O)(=O)C3(C(=O)NO)CCOCC3)cc2)cn1 [Example 534] | 0.493 | 6.81
6 | CCc1ccc(CCCOc2ccc(S(=O)(=O)C3(C(=O)NO)CCOCC3)cc2)cn1 [Example 535] | 0.261 | 3.87
7 | CN1CCC(C(=O)NO)(S(=O)(=O)c2ccc(SCCNC(=O)c3cc4ccccc4o3)cc2)CC1 [Example 536] | 3.4 | > 10
8 | COCCN1CCC(C(=O)NO)(S(=O)(=O)c2ccc(OCCc3cccc(-c4ccncc4)c3)cc2)CC1 [Example 538] | 0.184 | 1.7
9 | COCCN1CCC(C(=O)NO)(S(=O)(=O)c2ccc(OCCc3cccc(-c4cccnc4)c3)cc2)CC1 [Example 539] | 0.21 | 1.18
10 | COCCN1CCC(C(=O)NO)(S(=O)(=O)c2ccc(OCCc3cccc(-c4ccccc4F)c3)cc2)CC1 [Example 540] | 0.58 | > 10
11 | O=C(NCCSc1ccc(S(=O)(=O)C2(C(=O)NO)CCN(C3CC3)CC2)cc1)c1nc2ccccc2s1 [Example 541] | 0.24 | > 10
12 | O=C(NCCSc1ccc(S(=O)(=O)C2(C(=O)NO)CCN(C3CC3)CC2)cc1)c1cc2ccccc2o1 [Example 542] | 0.86 | > 10
13 | COCCN1CCC(C(=O)NO)(S(=O)(=O)c2ccc(OCCc3ccc(-c4ccc(C#N)cc4)cc3)cc2)CC1 [Example 543] | 0.23 | 3.09
14 | COCCN1CCC(C(=O)NO)(S(=O)(=O)c2ccc(OCCc3cccc(-c4ccc(F)cc4)c3)cc2)CC1 [Example 544] | 0.898 | > 10
15 | COCCN1CCC(C(=O)NO)(S(=O)(=O)c2ccc(OCCc3cccc(-c4cccc(F)c4)c3)cc2)CC1 [Example 545] | 1.11 | > 10
16 | COCCN1CCC(C(=O)NO)(S(=O)(=O)c2ccc(OCCc3cccc(-c4ccc(F)cc4F)c3)cc2)CC1 [Example 546] | 1.06 | > 10

Row | Structure (SMILES) | Ki (Human recombinant MMP-13) [nM] | Ki (Human recombinant MMP-14) [µM]
17 | COCCN1CCC(C(=O)NO)(S(=O)(=O)c2ccc(OCCc3cccc(-c4ccc(Cl)cc4)c3)cc2)CC1 [Example 547] | 2.28 | > 10
18 | COCCN1CCC(C(=O)NO)(S(=O)(=O)c2ccc(OCCc3cccc(-c4ccccn4)c3)cc2)CC1 [Example 548] | 0.38 | 7.42
19 | COCCN1CCC(C(=O)NO)(S(=O)(=O)c2ccc(OCCc3cccc(-c4ccc(F)c(F)c4)c3)cc2)CC1 [Example 549] | 1.87 | > 10
20 | CCCc1ccc(COc2ccc(S(=O)(=O)C3(C(=O)NO)CCOCC3)cc2)cn1 [Example 550] | 0.52 | 2.18
21 | CCCCc1ccc(COc2ccc(S(=O)(=O)C3(C(=O)NO)CCOCC3)cc2)cn1 [Example 551] | 0.62 | 2.06
22 | CCc1ccc(COc2ccc(S(=O)(=O)C3(C(=O)NO)CCOCC3)cc2)cn1 [Example 552] | 1.78 | 2.44
23 | COCCN1CCC(C(=O)NO)(S(=O)(=O)c2ccc(OCCNC(=O)c3cc4ccccc4o3)cc2)CC1 [Example 553] | 0.259 | 2.26
24 | O=C(NO)C1(S(=O)(=O)c2ccc(OCCOc3cncnc3)cc2)CCOCC1 [Example 554] | 14.5 | > 10
25 | O=C(NO)C1(S(=O)(=O)c2ccc(OCCCOCc3ccncc3)cc2)CCOCC1 [Example 555] | 0.261 | 0.689
26 | O=C(NO)C1(S(=O)(=O)c2ccc(OCCc3ccccn3)cc2)CCOCC1 [Example 556] | 53.2 | 3.5
27 | O=C(NO)C1(S(=O)(=O)c2ccc(OCCc3cccnc3)cc2)CCOCC1 [Example 557] | 3.68 | 0.0522
28 | O=C(NO)C1(S(=O)(=O)c2ccc(OCCCOc3cncnc3)cc2)CCOCC1 [Example 559] | 1.51 | 0.845
29 | O=C(NO)C1(S(=O)(=O)c2ccc(OCCCOc3cccnc3)cc2)CCOCC1 [Example 560] | 0.616 | 0.549
30 | O=C(NCCOc1ccc(S(=O)(=O)C2(C(=O)NO)CCOCC2)cc1)c1c[nH]c2ccccc12 [Example 562] | 2.97 | 9.27
31 | O=C(NCCSc1ccc(S(=O)(=O)C2(C(=O)NO)CCOCC2)cc1)c1nc2ccccc2s1 [Example 598] | 0.27 | > 10
32 | C#Cc1ccc(-c2cccc(CCCOc3ccc(S(=O)(=O)C4(C(=O)NO)CCN(CCOC)CC4)cc3)c2)cc1 [Example 646] | 0.16 | 4.3
